In experiment [1] the test system is human adipose-derived stem cells. As to the kind of experiment: Confirmation test for migration imparting effect (96-well Boyden chamber, Calcein-AM fluorescence). The class given is cell-based. The note with it: 20 hours; for Migration imparting effect, Ratio to blank (%): blank = 100%. Here is the method: A medium of human adipose-derived stem cells (manufactured by Kurabo Industries Ltd.; cultured to the 7th passage in STEMLIFE medium [provided by Lifeline Cell Technology]) was replaced with DMEM/F12 medium (manufactured by Life Technologies Corp.), followed by culture for additional 20 hours.
Meanwhile, a medium in which a sample to be examined for the presence or absence of the migration imparting effect was dissolved at a predetermined concentration was prepared by using 0.1% by volume of fetal bovine serum (nutritional source). Also, DMEM/F12 medium containing 0.1% by volume of fetal bovine serum and not containing the sample (blank) was provided.
Then, the prepared medium was supplied at 200 μL per well to lower wells of a 96-well Boyden chamber (manufactured by Corning Inc., model number: 3384) having a membrane pore size of 8 μm. Also, the human adipose-derived stem cells cultured for 20 hours in the DMEM/F12 medium were inoculated at 30000 cells per well to upper wells of the Boyden chamber and cultured at 37° C. for 20 hours under 5% by volume of CO2.
1.2 μL/mL of Calcein-AM (fluorescent dye, manufactured by Molecular Probes/Thermo Fisher Scientific Inc.) dissolved at 1.66 mg/mL in DMSO (manufactured by Wako Pure Chemical Industries, Ltd.) was added to 10× cell dissociation solution (cell dissolution solution, manufactured by Trevigen Inc.) diluted 10-fold with sterilized water to thereby prepare an index solution for fluorescence emission having the correlation between the number of human adipose-derived stem cells and the strength of fluorescence emission.
The media in the upper and lower wells were taken out of the Boyden chamber and washed with PBS(−) (manufactured by Dojindo Laboratories), and then, the index solution for fluorescence emission was supplied at 100 μL per well to the lower wells and incubated at 37° C. for 1 hour under 5% by volume of CO2 in the dark. Then, the index solution in the lower wells after the incubation was transferred to a 96-well plate (manufactured by Greiner Bio One International GmbH) having black walls and a transparent bottom, and fluorescence intensity (excitation wavelength: 485 nm, detection wavelength: 520 nm) was measured. Each test was conducted in triplicate (n=3).
Specifically, since there is a correlation between the number of human adipose-derived stem cells and the strength of fluorescence emission as mentioned above, the presence or absence of the migration imparting effect was confirmed by determining increase or decrease in the fluorescence intensity of the lower wells by using the fluorescence intensity obtained by the assay of the blank as a reference (100%). As for the determination of the presence or absence of migration, the “migration imparting effect was present” was determined provided that the rate of stem cell migration (rate of increase with respect to the blank) was 5% or more (score + or more) according to the score shown in Table 1 below.
(§1) It is known that the doubling time of the present cells is usually 24 hours or longer, and in the confirmation test for the migration imparting effect, the human adipose-derived stem cells are taken out 20 hours after inoculation and washed, followed by the measurement of the strength of fluorescence emission. Accordingly, in this test, the growth effect of the human adipose-derived stem cells themselves is not included, and only increase in cells by migration is evaluated. On the other hand, in the confirmation test for the growth promoting effect, absorbance 72 hours after inoculation of the human adipose-derived stein cells is measured, and increase in cells by self-growth is simply evaluated.

For experiment [2] the test system is unchanged. As to the kind of experiment: Confirmation test for growth promoting effect (WST-8 method, Cell Counting Kit-8). The class given is cell-based. To be noted: 72 hours; for Growth promoting effect, Ratio to blank (%): blank = 100%. Here is the method: A medium in which a sample to be examined for the presence or absence of the migration imparting effect was dissolved at a predetermined concentration was prepared by using DMEM/F12 medium (manufactured by Life Technologies Corp.) containing 0.1% by volume of fetal bovine serum. Also, DMEM/F12 medium containing 0.1% by volume of fetal bovine serum unsupplemented with the sample (blank) was provided.
Then, human adipose-derived stem cells (manufactured by Kurabo Industries Ltd.; cultured to the 5th passage in STEMLIFE medium [provided by Lifeline Cell Technology]) were inoculated at 3000 cells per well with the prepared medium to a 96-well plate and cultured at 37° C. for 72 hours under 5% by volume of CO2, and then, respiratory activity of the cells was measured as an index for whether or not the cells were activated, by the WST-8 method using Cell Counting Kit-8 (manufactured by Dojindo Laboratories). Specifically, after the human adipose-derived stem cells were cultured for 72 hours, the medium of each well was replaced with DMEM/F12 medium containing Cell Counting Kit-8, which was then incubated at 37° C. for 4 hours under 5% by volume of CO2 in the dark, and then, absorbance at a wavelength of 450 nm (control wavelength: 630 nm) was measured. Each test was conducted in triplicate (n=3).
Specifically, the degree of the respiratory activity (proportional to the number of cells) was measured as the absorbance (wavelength: 450 nm) of the solution by using the WST-8 reagent. Then, the presence or absence of the growth promoting effect was confirmed by determining increase or decrease in the absorbance of the sample-containing prepared medium by using the absorbance obtained by the assay of the blank medium as a reference (100%). As for the determination of the presence or absence of growth promotion, the “stem cell growth promoting effect was present” was determined provided that the rate of stem cell growth (rate of growth with respect to the blank) was 5% or more (score + or more) according to the score shown in Table 2 below.
as §1
(Tetrazolium dyes change colour on reduction, which living cells bring about.)

Where [3] appears, read: applied concentration 0.01 mg/mL.
Setting [4] is: applied concentration 0.1 mg/mL.
The mark [5] stands for this setting: applied concentration 1.0 mg/mL.
Setting [6] is: applied concentration 0.001 mg/mL.

The text below walks through data of patent publication US20180161262A1, “Cosmetic Method and Dermatological Topical Agent for Use Therein, Migration Imparting Agent, and Method for Screening Components for Use in Cosmetic Method for Improving Skin State” (ROHTO PHARMACEUTICAL CO., LTD., priority 2015, published 2018).

In the case of caprooyl tetrapeptide-3, the “Migration imparting effect, Evaluation (score)” value in experiment [1] (setting [3]) is “+ (105 or more and less than 120)”; in experiment [1] (setting [4]), “+++ (130 or more and less than 140)”; in experiment [1] (setting [5]) it was “+++ (130 or more and less than 140)”. Further, the “Migration imparting effect, Ratio to blank (%)” value in experiment [1] (setting [3]) is 109%; in experiment [1] (setting [4]), 133%; in experiment [1] (setting [5]), 132%. Moreover, the “Growth promoting effect, Evaluation (score)” value was “++ (120 or more and less than 130)” in experiment [2] (setting [3]); “++ (120 or more and less than 130)” in experiment [2] (setting [4]); “+ (105 or more and less than 120)” in experiment [2] (setting [5]). For the same substance, the “Growth promoting effect, Ratio to blank (%)” value was found to be 120% in experiment [2] (setting [3]), 123% in experiment [2] (setting [4]) and 117% in experiment [2] (setting [5]).
For copper tripeptide-1, the “Migration imparting effect, Evaluation (score)” value in experiment [1] (setting [6]) is “+++ (130 or more and less than 140)”; in experiment [1] (setting [3]), “++ (120 or more and less than 130)”; in experiment [1] (setting [4]) it was “+++ (130 or more and less than 140)”. Also, the “Migration imparting effect, Ratio to blank (%)” value in experiment [1] (setting [6]) was 130%; in experiment [1] (setting [3]) it was 125%; in experiment [1] (setting [4]), 131%. Besides, the “Growth promoting effect, Evaluation (score)” value in experiment [2] (setting [3]) was “+++ (130 or more and less than 140)”; in experiment [2] (setting [4]) it was “++++ (140 or more)”. Moreover, the results for the “Growth promoting effect, Ratio to blank (%)” value in experiment [2] (setting [3]) and in experiment [2] (setting [4]) were 130% and 160%, respectively.
